As usually defined, the IC50 is the concentration at which inhibition is half-maximal. Lower therefore signals higher potency.

Data on 4 compounds can be found in US20220363665A1, “QUINOLINE COMPOUNDS FOR THE TREATMENT OF AUTOIMMUNE DISEASE” (Hoffmann-La Roche Inc., priority 2019, published 2022).

A value given as a limit tells only on which side of the number the result lay.

The target in this assay is T1, human TLR8 (Homo sapiens, UniProt Q9NR97).
T1 construct: host or cells: HEK293 (HEK-Blue hTLR8)
T1 sequence (Q9NR97 27-1041): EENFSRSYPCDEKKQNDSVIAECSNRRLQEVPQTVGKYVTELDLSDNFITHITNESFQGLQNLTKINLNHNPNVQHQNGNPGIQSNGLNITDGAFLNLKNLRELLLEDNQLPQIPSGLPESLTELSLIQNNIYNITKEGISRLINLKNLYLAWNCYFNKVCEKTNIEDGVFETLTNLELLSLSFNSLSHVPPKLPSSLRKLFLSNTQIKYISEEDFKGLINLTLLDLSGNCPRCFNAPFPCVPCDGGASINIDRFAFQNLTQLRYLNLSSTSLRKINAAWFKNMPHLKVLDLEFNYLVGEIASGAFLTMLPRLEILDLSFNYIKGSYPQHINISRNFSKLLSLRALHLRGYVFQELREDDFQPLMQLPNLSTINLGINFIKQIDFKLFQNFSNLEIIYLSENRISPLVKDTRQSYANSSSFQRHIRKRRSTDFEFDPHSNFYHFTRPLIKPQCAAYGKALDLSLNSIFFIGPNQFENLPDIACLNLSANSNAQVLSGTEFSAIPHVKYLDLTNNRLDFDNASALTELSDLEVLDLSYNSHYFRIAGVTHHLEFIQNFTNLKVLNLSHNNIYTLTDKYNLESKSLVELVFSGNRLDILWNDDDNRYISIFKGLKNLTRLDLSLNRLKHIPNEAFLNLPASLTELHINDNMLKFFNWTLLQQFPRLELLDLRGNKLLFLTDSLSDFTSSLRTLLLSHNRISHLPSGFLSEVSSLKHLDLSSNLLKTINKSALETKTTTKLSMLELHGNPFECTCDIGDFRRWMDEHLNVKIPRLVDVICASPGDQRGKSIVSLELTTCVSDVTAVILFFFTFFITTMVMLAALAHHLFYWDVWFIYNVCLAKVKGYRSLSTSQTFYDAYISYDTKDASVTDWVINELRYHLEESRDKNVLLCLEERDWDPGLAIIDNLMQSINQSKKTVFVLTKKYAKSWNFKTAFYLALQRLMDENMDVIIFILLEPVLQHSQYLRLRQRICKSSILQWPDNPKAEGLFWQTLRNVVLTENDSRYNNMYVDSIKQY
The assay can be described thus: HEK293-Blue-hTLR-8 cells assay (SEAP reporter, R848 stimulation). Format: cell-based. As to conditions: HEK293-Blue-hTLR8 cells, R848, 20 hrs. Here is the method: The following tests were carried out in order to determine the activity of the compounds of formula (I) in HEK293-Blue-hTLR-7/8/9 cells assay.
HEK293-Blue-hTLR-8 Cells Assay:
A stable HEK293-Blue-hTLR-8 cell line was purchased from InvivoGen (Cat. #: hkb-htlr8, San Diego, Calif., USA). These cells were originally designed for studying the stimulation of human TLR8 by monitoring the activation of NF-κB. A SEAP (secreted embryonic alkaline phosphatase) reporter gene was placed under the control of the IFN-β minimal promoter fused to five NF-κB and AP-1-binding sites. The SEAP was induced by activating NF-κB and AP-1 via stimulating HEK-Blue hTLR8 cells with TLR8 ligands. Therefore the reporter expression was declined by TLR8 antagonist under the stimulation of a ligand, such as R848, for incubation of 20 hrs. The cell culture supernatant SEAP reporter activity was determined using QUANTI-Blue™ kit (Cat #. rep-qbl, Invivogen, San Diego, Calif., USA) at a wavelength of 640 nm, a detection medium that turns purple or blue in the presence of alkaline phosphatase.
HEK293-Blue-hTLR8 cells were incubated at a density of 250,000˜450,000 cells/mL in a volume of 170 μL in a 96-well plate in Dulbecco's Modified Eagle's medium (DMEM) containing 4.5 g/L glucose, 50 U/mL penicillin, […], […], 2 mM L-glutamine, 10% (v/v) heat-inactivated fetal bovine serum with addition of 20 μL test compound in a serial dilution in the presence of final DMSO at 1% and 10 μL of 60 μM R848 in above DMEM, perform incubation under 37° C. in a CO2 incubator for 20 hrs. Then 20 μL of the supernatant from each well was incubated with 180 μL Quanti-blue substrate solution at 37° C. for 2 hrs and the absorbance was read at 620˜655 nm using a spectrophotometer. The signalling pathway that TLR8 activation leads to downstream NF-KB activation has been widely accepted, and therefore similar reporter assay was modified for evaluating TLR8 antagonist.
`Cc1ccc(N2C[C@@H](C)O[C@@H](C(=O)NC3CCN(C)CC3)C2)c2cccnc12` [Example 16, (2R,6R)-6-methyl-N-(1-methyl-4-piperidyl)-4-(8-methyl-5-quinolyl)morpholine-2-carboxamide]: it took 8 nM to reach half-maximal inhibition (IC50). This counts as single-digit nanomolar. In turn, `C[C@@H]1CN(c2ccc(C(F)(F)F)c3ncccc23)C[C@H](C(=O)NC2CN(C)CC23CC3)O1` (stereo partly drawn) [Example 9, (2R,6R)-6-methyl-N-(5-methyl-5-azaspiro[2.4]heptan-7-yl)-4-[8-(trifluoromethyl)-5-quinolyl]morpholine-2-carboxamide] showed an IC50 of under 3 nM. On to `C[C@@H]1CN(c2ccc(C(F)(F)F)c3ncccc23)C[C@H](C(=O)NC[C@@H]2CC(F)(F)CN2)O1` [Example 30], for which inhibition was half-maximal at 130 nM (IC50). `C[C@@H]1CN(c2ccc(C(F)(F)F)c3ncccc23)C[C@H](C(=O)NC2CC3CNCC32)O1` (single isomer, unassigned) [Example 49B] came in with an IC50 of 9 nM.
